EC50 data for 14 molecules are collected here from patent publication US20220306630A1, “AGONISTS OF ROR GAMMAt” (BRISTOL-MYERS SQUIBB COMPANY, priority 2019, published 2022).

Molecules are shown by their SMILES.

For this assay, the target named is T1, RORgT (Homo sapiens, UniProt P51449).
T1 construct: Gal4 (fusion partner); expressed in transfected cells; host or cells: engineered Jurkat cells (Jurkat pEx/Gal/hRORγ CLBD/HYG pG5luc/blast)
T1 sequence (P51449 267-516): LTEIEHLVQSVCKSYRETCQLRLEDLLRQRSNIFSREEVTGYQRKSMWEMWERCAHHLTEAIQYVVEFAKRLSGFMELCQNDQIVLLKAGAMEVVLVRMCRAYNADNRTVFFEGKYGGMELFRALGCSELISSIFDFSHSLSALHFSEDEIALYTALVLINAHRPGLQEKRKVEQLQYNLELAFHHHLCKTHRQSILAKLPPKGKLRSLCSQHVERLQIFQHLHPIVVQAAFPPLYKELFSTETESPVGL
As to the kind of experiment: RORgT Gal4 Luciferase Reporter Gene Assay. Format: cell-based. The settings on record: engineered Jurkat cells overexpressing RORgT (LBD or full length) with Gal4 Luc reporter; 18 hours at 37° C.; 40 μM to 0.67 nM; read-out: RORg_GAL4 EC50. On the procedure:
The compound and the cells were incubated for 18 hours at 37° C. in a cell culture incubator. Cells were then lysed with 15 uL of Steady-Glo Luciferase Assay reagent (Promega EZ550), followed by centrifuging the assay plates at 1500 RPM for 1 minute. Subsequently, the plates were read on the Envision (PerkinElmer). The inhibition of constitutive activity of RORgT achieved by graded concentrations of compound was calculated as a percentage of the luminescence signal window reduction over a control compound.
Background: Reporter assays use an easily measured gene product as a stand-in for the process of interest.

By EC50 is commonly meant the concentration that produces a half-maximal response. On to `COc1ccc(Oc2c(Cl)cc(N3CC(CNS(N)(=O)=O)OC3=O)cc2Cl)cc1C(C)C` (centres unmarked) [Example 12, N-[(3-{3,5-dichloro-4-[4-methoxy-3-(propan-2-yl)phenoxy]phenyl}-2-oxo-1,3-oxazolidin-5-yl)methyl]aminosulfonamide], for which the EC50 came to 1100 nM.

For `COc1ccc(Oc2c(Cl)cc(NC(=O)Cc3cccnc3)cc2Cl)cc1C(C)(C)C` [Example 13, N-(4-(3-(tert-butyl)-4-methoxyphenoxy)-3,5-dichlorophenyl)-2-(pyridin-3-yl)acetamide], the concentration for a half-maximal effect (EC50) came out at 268 nM.

Take `CC(C)c1cc(F)cc(Oc2c(Cl)ccc(C(=O)NCc3ccc(S(N)(=O)=O)cc3)c2Cl)c1` [Example 16, 2,4-dichloro-3-(3-fluoro-5-isopropylphenoxy)-N-(4-sulfamoylbenzyl)benzamide]: the EC50 is 6.1 nM.

With `COc1ncc(Oc2c(Cl)cc(NC(=O)CN3CCN(S(C)(=O)=O)CC3)cc2Cl)cc1C(C)C` [Example 17, N-(3,5-dichloro-4-((5-isopropyl-6-methoxypyridin-3-yl)oxy)phenyl)-2-(4-(methylsulfonyl)piperazin-1-yl)acetamide], the EC50 stood at 5.2 nM.

Turning to `COc1ccc(Oc2c(Cl)ccc(C#N)c2Cl)cc1C(C)C` [Example 18, 2,4-dichloro-3-(3-isopropyl-4-methoxyphenoxy)benzonitrile], the half-maximal effective concentration (EC50) was determined as 1870 nM.

Turning to `COc1ccc(Oc2c(Cl)ccc(C(=O)NCCn3ccnc3)c2Cl)cc1C(C)C` [Example 19, N-(2-(1H-imidazol-1-yl)ethyl)-2,4-dichloro-3-(3-isomethoxyphenoxy)benzamide], the 50% effective concentration (EC50) was 396 nM.

For the molecule `COc1ccc(Oc2c(Cl)ccc(CNS(=O)(=O)c3cccnc3)c2Cl)cc1C(C)C` [Example 21, N-(2,4-dichloro-3-(3-isopropyl-4-methoxyphenoxy)benzyl)pyridine-3-sulfonamide], the concentration giving a half-maximal response (EC50) worked out at 650 nM.

Turning to `COc1ccc(Oc2c(Cl)ccc(CN(C)C(=O)c3ccc(S(C)(=O)=O)cc3)c2Cl)cc1C(C)C` [Example 22, N-(2,4-dichloro-3-(3-isopropyl-4-methoxyphenoxy)benzyl)-N-methyl-4-(methylsulfonyl)benzamide], the EC50 amounted to 95 nM.

With `COc1ncc(Oc2c(Cl)ccc(NC(=O)Cc3ccc(S(C)(=O)=O)cc3)c2Cl)cc1C(C)C` [Example 23, N-(2,4-dichloro-3-((5-isopropyl-6-methoxypyridin-3-yl)oxy)phenyl)-2-(4-(methylsulfonyl)phenyl)acetamide], the 50% effective concentration (EC50) amounted to 49 nM.

Take `COc1ncc(Oc2c(Cl)cc(NC(=O)CC3CCN(S(=O)(=O)C(C)C)CC3)cc2Cl)cc1C(C)C` [Example 24, N-(3,5-dichloro-4-((5-isopropyl-6-methoxypyridin-3-yl)oxy)phenyl)-2-(1-(isopropylsulfonyl)piperidin-4-yl)acetamide]: the EC50 was found to be 45 nM.

In the case of `CC(C)c1cc(F)cc(Oc2c(Cl)cc(NC(=O)OC3CCCN(S(C)(=O)=O)C3)cc2Cl)c1` (centres unmarked) [Example 25, 1-(methylsulfonyl)piperidin-3-yl (3,5-dichloro-4-(3-fluoro-5-isopropylphenoxy)phenyl)carbamate], the EC50 came out at 626 nM.

Consider `CC(C)c1cc(F)cc(Oc2c(Cl)cc(NC(=O)NC3CCCN(S(C)(=O)=O)C3)cc2Cl)c1` (centres unmarked) [Example 26, 1-(3,5-dichloro-4-(3-fluoro-5-isopropylphenoxy)phenyl)-3-(1-(methylsulfonyl)piperidin-3-yl)urea], for which the EC50 was found to be 322 nM.

On to `COc1ncc(Oc2c(Cl)cc(NC(=O)CC3CCN(S(C)(=O)=O)CC3)cc2Cl)cc1C(C)(C)O` [Example 27, N-(3,5-dichloro-4-((5-(2-hydroxypropan-2-yl)-6-methoxypyridin-3-yl)oxy)phenyl)-2-(1-(methylsulfonyl)piperidin-4-yl)acetamide], for which the half-maximal effective concentration (EC50) came to 30 nM.

For the molecule `COc1ncc(Oc2c(Cl)cc(NC(=O)CC3CCN(S(C)(=O)=O)CC3)cc2Cl)cc1C(C)(C)F` [Example 28, N-(3,5-dichloro-4-((5-(2-fluoropropan-2-yl)-6-methoxypyridin-3-yl)oxy)phenyl)-2-(1-(methylsulfonyl)piperidin-4-yl)acetamide], the concentration giving a half-maximal response (EC50) worked out at 6.9 nM.
